Melting point data for four molecules are collected here from patent US6646124B2, “Substituted 4-oxo-napthyridine-3-carboxamides: GABA brain receptor ligands” (Neurogen Corporation, priority 1997, dated 2003).

Regarding `CCOc1ccc2[nH]cc(C(=O)NCC3CCCO3)c(=O)c2n1` (stereo not shown) [Compound 4, N-(2-Tetrahydrofuranyl)methyl 6-ethoxy-4-oxo-1,4-tetrahydro-1,5-naphthyridine-3-carboxamide], the melting point lay within 235 to 237 °C.

`CCSCCNC(=O)c1c[nH]c2ccc(OC)nc2c1=O` [Compound 5, N-[2-(ethylthio)ethyl] 6-methoxy-4-oxo-1,4-dihydro-1,5-napththyridine-3-carboxamide]: the melting point was 257 to 259 °C (dec.).

`O=C(NCc1ccccc1F)c1c[nH]c2ccc(N3CCOCC3)nc2c1=O` [Compound 7, N-(2-Fluorobenzyl) 6-morpholino-4-oxo-1,4-tetrahydro-1,5-naphthyridine-3-carboxamide] had a melting point of 137 to 139 °C.

Consider `CCOc1ccc2[nH]cc(C(=O)NCc3ccc4c(c3)OCO4)c(=O)c2n1` [Compound 9, N-Piperonyl 6-ethoxy-4-oxo-1,4-tetrahydro-1,5-naphthyridine-3-carboxamide], for which the melting point was 190 °C.

The term melting point denotes the temperature of the solid-liquid transition.
